We go through four compounds from patent US10258639B2, “Methods for treating insulin resistance and for sensitizing patients to GLP1 agonist therapy” (Research Development Foundation, priority 2014, dated 2019).

For one data set, the target named is human GLP1 receptor (Homo sapiens, UniProt P43220). The following applies: greater affinity vs native GLP1; cited from earlier work.
The conditions of data set [1]: mildly hyperglycaemic patients with Type 2 diabetes on metformin (Ratner et al. 2010); cited from earlier work.
For data set [2] the following is noted: Matthews et al. 2008; cited from earlier work.
For another data set, the system named is PKIB in INS1 cells. Nature of the data set: PKIB expression (mRNA/protein) in INS1 cells. In kind it is cell-based, rat. The settings on record: DMOG 1 mM. The procedure:
Moreover, RNAi-mediated depletion of HIF-1α also disrupted PKIB induction, whereas HIF-1α over-expression potentiated it (FIG. 5f, FIGS. 10e and 10f).
(§1) INS-1 insulinoma cells were cultured in RPMI (corning cellgro) containing 10% fetal bovine serum (Gemini Bio Products), 100 μg/mL penicillin-streptomycin and 1 mM sodium pyruvate (corning cellgro). MIN6 cells were grown in DMEM (corning cellgro) with 10% FBS, 100 μg/mL penicillin-streptomycin and 70 uM beta-mercaptoethanol. For chronic glucose experiments, cells were maintained under low (2.8 mM) or high (20 mM) glucose for 3 days. Exendin-4 (10 nM), Forskolin (10 μM), KCl (40 mM), DMOG (1 mM) and rapamycin (50 nM) were added to cells as indicated. Cellular cAMP levels were measured using an ELISA kit (Cayman Chemical Company) according to manufacturer's instructions.
Total RNAs from cells or primary islets were extracted using Trizol and cDNA was generated using the Transcriptor First Strand cDNA Synthesis kit (Roche Applied Science). cDNAs were quantified on a lightcycler 480 instrument (Roche Applied Science). […] Libraries were quantitated by Qubit (Invitrogen), and run on a MiSeq instrument with paired-end 75 bp reads using v3 chemistry (Illumina) Data were analyzed by tophat2 and cuffdiff against the mouse mm10 genome build. […]

Data set [3] concerns CREB (Ser133) / CRTC2 in INS1 insulinoma cells. Nature of the data set: Immunoblot of CREB phosphorylation and CRTC2 dephosphorylation in INS1 insulinoma cells. The settings on record: within 30 minutes, FSK 10 μM, KCl 40 mM. In kind it is cell-based, rat. The method, then: as §1
Total protein from cultured cells or primary islets was extracted in a Tris-HCl buffer containing 0.5% NP40, protease and phosphatase inhibitors. Proteins were quantified using Bradford reagent and separated using SDS-PAGE. For cellular fractionation, cells were resuspended in hypotonic lysis buffer (40 mM TrisHCl PH 7.4, 10 mM NaCl, 1 mM EDTA with DTT and protease inhibitors). Cells were lysed using a dounce homogenizer and centrifuged. Cytosolic supernatants were collected. Nuclear pellets were washed 3 times and resuspended in nuclear extraction buffer (40 mM TrisHCl PH 7.4, 420 mM NaCl, 10% Glycerol, 1 mM EDTA). Samples were sonicated and centrifuged. Nuclear supernatants were collected. […]
A general note: In western blotting, separated proteins are transferred to a membrane and probed.

Sequence of human GLP1 receptor (P43220 24-463): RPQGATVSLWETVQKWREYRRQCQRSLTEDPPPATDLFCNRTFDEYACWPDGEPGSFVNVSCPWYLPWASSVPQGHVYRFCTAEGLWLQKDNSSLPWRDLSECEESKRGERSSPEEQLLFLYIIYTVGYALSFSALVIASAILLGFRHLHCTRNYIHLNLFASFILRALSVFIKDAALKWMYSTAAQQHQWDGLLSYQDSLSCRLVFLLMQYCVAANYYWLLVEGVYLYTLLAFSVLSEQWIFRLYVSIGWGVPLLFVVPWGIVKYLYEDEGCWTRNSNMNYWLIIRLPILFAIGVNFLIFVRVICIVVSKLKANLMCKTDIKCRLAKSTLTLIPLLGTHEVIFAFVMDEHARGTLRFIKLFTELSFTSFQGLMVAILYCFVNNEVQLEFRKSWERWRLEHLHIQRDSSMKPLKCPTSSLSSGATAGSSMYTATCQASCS

Take “Lixisenatide: exendin-4-based GLP1 receptor agonist”: the “affinity for the human GLP1 receptor compared with native GLP1” value with human GLP1 receptor is “approximately 4 fold”. Moreover, the glycaemic control result in data set [1] was “significantly improve glycaemic control”.

Take “Albiglutide: recombinant human serum albumin (HSA)-GLP1 hybrid protein; dipeptidyl peptidase-4-resistant glucagon-like peptide-1 dimer fused to human albumin”: the half-life after administration result in data set [2] is “four to seven”.

On to `COC(=O)CNC(=O)C(=O)OC` [DMOG], for which the PKIB expression entry in the data set with PKIB in INS1 cells was “upregulated PKIB expression”.

Consider `[Cl-].[K+]` [KCl], for which, in data set [3], the “phosphorylation of CREB at Ser133” value is “stimulated CREB phosphorylation to a lesser extent”.
